Measured values reported in US11420958B2, “Aryl and heteroaryl substituted indole compounds” (BRISTOL-MYERS SQUIBB COMPANY, priority 2017, dated 2022).

What was measured:
Type in all cases: cell-based
[1] = target: human TLR7 (Homo sapiens (Human), UniProt Q9NYK1); test: TLR7 inhibition reporter assay (HEK-Blue, SEAP); conditions: HEK-Blue cells overexpressing human TLR7, gardiquimod 7.5 μM stimulation
Procedure, shortened: (§1)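 HEK-Blue cells overexpressing the receptor carry a SEAP reporter under IFN-β minimal promoter with NF-κB/AP-1 sites. Compounds (0.05 nM–50 μM final) were preincubated 30 min at room temperature, then cells were stimulated with gardiquimod 7.5 μM (TLR7), R848 15.9 μM (TLR8) or ODN2006 5 nM (TLR9) for 22 h at 37 °C.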

[2] = target: human TLR8 (Homo sapiens (Human), UniProt Q9NR97); test: TLR8 inhibition reporter assay (HEK-Blue, SEAP); conditions: HEK-Blue cells overexpressing human TLR8, R848 15.9 μM stimulation
human TLR8, sequence (Q9NR97 27-1041): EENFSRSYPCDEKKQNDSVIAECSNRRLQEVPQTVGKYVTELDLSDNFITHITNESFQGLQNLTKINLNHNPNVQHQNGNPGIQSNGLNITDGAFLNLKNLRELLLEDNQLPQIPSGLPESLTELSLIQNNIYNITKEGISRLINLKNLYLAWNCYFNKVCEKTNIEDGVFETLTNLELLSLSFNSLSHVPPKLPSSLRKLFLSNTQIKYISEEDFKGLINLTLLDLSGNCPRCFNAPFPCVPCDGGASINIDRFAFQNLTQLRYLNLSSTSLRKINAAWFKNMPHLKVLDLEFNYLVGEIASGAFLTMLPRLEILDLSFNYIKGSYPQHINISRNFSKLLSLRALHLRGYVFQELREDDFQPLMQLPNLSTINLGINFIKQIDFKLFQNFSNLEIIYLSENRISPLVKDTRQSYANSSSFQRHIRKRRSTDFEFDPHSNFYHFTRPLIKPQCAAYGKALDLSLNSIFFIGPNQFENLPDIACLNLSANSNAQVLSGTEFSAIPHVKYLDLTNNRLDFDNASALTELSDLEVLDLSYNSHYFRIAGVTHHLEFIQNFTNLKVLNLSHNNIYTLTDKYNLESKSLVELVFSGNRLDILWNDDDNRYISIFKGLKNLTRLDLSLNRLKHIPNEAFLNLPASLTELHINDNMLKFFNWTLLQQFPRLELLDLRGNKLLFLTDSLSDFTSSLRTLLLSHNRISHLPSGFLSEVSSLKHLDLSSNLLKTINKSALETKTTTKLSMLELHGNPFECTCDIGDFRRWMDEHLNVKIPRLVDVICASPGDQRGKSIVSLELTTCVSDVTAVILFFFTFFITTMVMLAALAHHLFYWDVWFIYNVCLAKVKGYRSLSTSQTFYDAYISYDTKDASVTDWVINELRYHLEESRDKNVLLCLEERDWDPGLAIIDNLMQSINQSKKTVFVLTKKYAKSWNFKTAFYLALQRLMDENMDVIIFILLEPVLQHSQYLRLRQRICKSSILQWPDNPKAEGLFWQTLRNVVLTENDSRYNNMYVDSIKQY
Procedure, shortened: as §1

[3] = target: human TLR9 (Homo sapiens (Human), UniProt Q9NR96); test: TLR9 inhibition reporter assay (HEK-Blue, SEAP); conditions: HEK-Blue cells overexpressing human TLR9, ODN2006 5 nM stimulation
human TLR9, sequence (Q9NR96 26-1032): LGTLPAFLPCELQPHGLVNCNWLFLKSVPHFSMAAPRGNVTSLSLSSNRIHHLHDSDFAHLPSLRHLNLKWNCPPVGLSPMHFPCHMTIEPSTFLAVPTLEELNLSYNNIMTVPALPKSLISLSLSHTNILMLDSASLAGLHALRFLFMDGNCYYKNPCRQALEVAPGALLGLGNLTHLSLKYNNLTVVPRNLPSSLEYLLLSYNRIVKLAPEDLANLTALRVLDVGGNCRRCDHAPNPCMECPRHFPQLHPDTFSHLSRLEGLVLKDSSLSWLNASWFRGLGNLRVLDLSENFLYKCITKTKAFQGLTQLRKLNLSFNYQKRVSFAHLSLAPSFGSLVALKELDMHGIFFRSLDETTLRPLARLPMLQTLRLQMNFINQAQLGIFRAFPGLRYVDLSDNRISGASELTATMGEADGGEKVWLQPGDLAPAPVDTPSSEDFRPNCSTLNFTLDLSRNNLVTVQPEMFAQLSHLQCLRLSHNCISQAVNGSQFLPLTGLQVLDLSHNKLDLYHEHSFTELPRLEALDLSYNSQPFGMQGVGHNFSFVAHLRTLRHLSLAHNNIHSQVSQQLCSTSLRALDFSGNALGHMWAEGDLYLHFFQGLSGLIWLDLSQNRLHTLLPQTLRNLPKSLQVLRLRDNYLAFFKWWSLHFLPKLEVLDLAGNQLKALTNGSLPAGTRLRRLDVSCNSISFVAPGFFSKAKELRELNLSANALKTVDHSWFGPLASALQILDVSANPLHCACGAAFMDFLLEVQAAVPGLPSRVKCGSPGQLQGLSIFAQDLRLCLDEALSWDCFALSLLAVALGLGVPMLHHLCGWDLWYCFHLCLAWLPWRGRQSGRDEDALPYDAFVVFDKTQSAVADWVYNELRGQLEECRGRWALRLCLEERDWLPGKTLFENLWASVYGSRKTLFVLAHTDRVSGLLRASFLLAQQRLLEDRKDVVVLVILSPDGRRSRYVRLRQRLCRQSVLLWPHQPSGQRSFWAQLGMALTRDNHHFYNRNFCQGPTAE
Procedure, shortened: as §1

human TLR7, sequence (Q9NYK1 27-1049): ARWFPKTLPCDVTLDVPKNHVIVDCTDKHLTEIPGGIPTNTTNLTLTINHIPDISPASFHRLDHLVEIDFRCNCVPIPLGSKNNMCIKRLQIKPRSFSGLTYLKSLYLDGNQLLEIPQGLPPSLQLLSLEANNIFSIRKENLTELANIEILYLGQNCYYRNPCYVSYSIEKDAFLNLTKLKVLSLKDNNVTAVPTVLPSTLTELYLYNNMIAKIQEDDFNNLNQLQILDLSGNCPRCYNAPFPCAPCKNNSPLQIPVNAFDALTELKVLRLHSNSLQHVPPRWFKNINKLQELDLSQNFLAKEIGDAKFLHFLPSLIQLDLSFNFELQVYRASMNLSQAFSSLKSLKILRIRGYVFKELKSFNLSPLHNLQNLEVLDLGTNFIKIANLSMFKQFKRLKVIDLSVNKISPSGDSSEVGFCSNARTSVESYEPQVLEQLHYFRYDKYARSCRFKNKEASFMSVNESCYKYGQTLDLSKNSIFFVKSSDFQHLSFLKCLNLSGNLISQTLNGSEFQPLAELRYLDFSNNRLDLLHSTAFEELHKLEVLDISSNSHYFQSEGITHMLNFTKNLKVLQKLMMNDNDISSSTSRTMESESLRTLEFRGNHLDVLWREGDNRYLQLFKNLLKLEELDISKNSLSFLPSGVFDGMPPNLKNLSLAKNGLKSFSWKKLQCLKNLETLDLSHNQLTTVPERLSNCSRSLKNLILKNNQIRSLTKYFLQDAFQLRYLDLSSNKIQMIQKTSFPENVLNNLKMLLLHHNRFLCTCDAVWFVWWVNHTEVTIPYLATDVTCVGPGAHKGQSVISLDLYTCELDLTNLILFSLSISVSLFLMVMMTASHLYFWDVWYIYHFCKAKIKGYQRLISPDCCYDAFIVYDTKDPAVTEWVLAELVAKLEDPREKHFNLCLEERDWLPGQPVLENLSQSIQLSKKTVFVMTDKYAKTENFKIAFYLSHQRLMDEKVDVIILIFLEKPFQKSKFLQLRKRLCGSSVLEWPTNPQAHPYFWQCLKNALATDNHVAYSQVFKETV

IC50 [1] [nM] | IC50 [2] [nM] | IC50 [3] [nM] | Compound
22 | 12 | 788 | CNCC(=O)N1CCc2cc(-c3ccc4[nH]c(-c5ccnc(C)c5)c(C(C)C)c4c3)sc2C1 [Example 252, 1-(2-(3-isopropyl-2-(2-methylpyridin-4-yl)-1H-indol-5-yl)-4,7-dihydrothieno[2,3-c]pyridin-6(5H)-yl)-2-(methylamino)ethan-1-one]
2.6 | 0.5 | 365 | Cc1cc(-c2[nH]c3ccc(-c4nc5c(s4)CNCC5)cc3c2C(C)C)cc(C)n1 [Example 308, 2-(2-(2,6-dimethylpyridin-4-yl)-3-isopropyl-1H-indol-5-yl)-4,5,6,7-tetrahydrothiazolo[5,4-c]pyridine]
50 | 3.8 | 303 | Cc1cc(-c2[nH]c3ccc(-c4nnc(C(=O)NC5CCN(C(C)C)CC5)o4)cc3c2C(C)C)ccn1 [Example 58, 5-(3-isopropyl-2-(2-methylpyridin-4-yl)-1H-indol-5-yl)-N-(1-isopropylpiperidin-4-yl)-1,3,4-oxadiazole-2-carboxamide]
1650 | 183 | 2730 | CCc1c(-c2ccc(OC)c(OC)c2)[nH]c2ccc(-c3noc([C@@H](N)CCCCN)n3)cc12 [Example 464, (S)-1-(3-(2-(3,4-dimethoxyphenyl)-3-ethyl-1H-indol-5-yl)-1,2,4-oxadiazol-5-yl)pentane-1,5-diamine]
3.7 | 20 | 3640 | Cc1cc(-c2[nH]c3ccc(-c4cn5cc(C)nc5cc4F)cc3c2C(C)C)cc(C)n1 [Example 348, 6-(2-(2,6-dimethylpyridin-4-yl)-3-isopropyl-1H-indol-5-yl)-7-fluoro-2-methylimidazo[1,2-a]pyridine]
149 | 39 | 14000 | Cc1cc(-c2[nH]c3ccc(-c4cccc(C(=O)NC5CCN(C(C)C)CC5)c4)cc3c2C(C)C)ccn1 [Example 16, 3-(3-isopropyl-2-(2-methylpyridin-4-yl)-1H-indol-5-yl)-N-(1-isopropylpiperidin-4-yl)benzamide]
26 | 3 | 654 | Cc1cc(-c2[nH]c3ccc(-c4ccc(NC(=O)CN(C)C)nc4)cc3c2C(C)C)ccn1 [Example 198, 2-(dimethylamino)-N-(5-(3-isopropyl-2-(2-methylpyridin-4-yl)-1H-indol-5-yl)pyridin-2-yl)acetamide]
334 | 4.7 | 693 | COc1ccc(-c2[nH]c3ccc(-c4cnc(N5CCN(C(C)C)CC5)cc4C)cc3c2C(C)C)cc1OC [Example 420, 2-(3,4-dimethoxyphenyl)-3-isopropyl-5-(6-(4-isopropylpiperazin-1-yl)-4-methylpyridin-3-yl)-1H-indole]
1990 | 165 | 14300 | COc1ccc(-c2[nH]c3ccc(-c4cccc(C(=O)N5CCN(CC(=O)NC(C)C)CC5)c4)cc3c2CC(F)(F)F)cc1OC [Example 30, 2-(4-(3-(2-(3,4-dimethoxyphenyl)-3-(2,2,2-trifluoroethyl)-1H-indol-5-yl)benzoyl)piperazin-1-yl)-N-isopropylacetamide]
549 | 9.8 | 5660 | CC(C)c1c(-c2ccnc3[nH]ncc23)[nH]c2ccc(-c3nnc(C4CCN(CC(=O)N(C)C)CC4)o3)cc12 [Example 87, 2-(4-(5-(3-isopropyl-2-(1H-pyrazolo[3,4-b]pyridin-4-yl)-1H-indol-5-yl)-1,3,4-oxadiazol-2-yl)piperidin-1-yl)-N,N-dimethylacetamide]
838 | 56 | 1450 | COc1ccc(-c2[nH]c3ccc(-c4ccnc(N5CCN(C6CCCC6)CC5)c4)cc3c2C(C)C)cc1OC [Example 426, 5-(2-(4-cyclopentylpiperazin-1-yl)pyridin-4-yl)-2-(3,4-dimethoxyphenyl)-3-isopropyl-1H-indole]
